Source: patent US6635665B2, “Remedies or preventives for pulmonary insufficiency containing diaminotrifluoromethylpyridine derivatives” (Ishihara Sangyo Kaisha, Ltd., priority 2000, dated 2003)

System: LPS induced rat ARDS model
Test: Therapeutic effect on lipopolysaccharide (LPS) induced rat ARDS model
Format: in vivo
Excerpt: The therapeutic effect of N-(2-ethylsulfonylamino-5-trifluoromethyl-3-pyridyl)cyclohexanecarboxamide sodium salt hydrate (hereinafter referred to as compound 1) on LPS induced rat ARDS model was examined.
The compound 1 was used as a drug formulation. The formulation composition (content per one vial) was as follows.
To Crj: CD(SD)IGS male rats (7 weeks old) (Charles River Japan Inc.), LPS (derived from Salmonella enteritidis; L6011, Lot. 27H4127, manufactured by Sigma) diluted with a phosphate buffer solution (PBS) was administered by spraying it on the trachea in a dose of 8 mg/kg (0.5 ml/rat) by means of an atomizer (endotracheal liquid atomizing apparatus 1A-1B, manufactured by Penn Century) to induce ARDS. For normal group rats, PBS was similarly sprayed.
A drug formulation of the compound 1 diluted with 5% glucose was subcutaneously administered continuously in a dose of 0.3 mg/kg/hr as calculated as anhydride of the compound 1 by means of an osmotic pump from immediately after the induction to the time of autopsy (24 hours after). To non-treated group rats, 5% glucose used as the solvent was administered similarly.
24 Hours after the administration of LPS, measurement of the body weight and the lung wet weight, biochemical examination of blood and pathological and histopathological examinations were carried out with respect to every surviving rats.
No death was confirmed 24 hours after the LPS administration, and thus various examinations were carried out with respect to every rat. Here, the pathological score was obtained by evaluating each rat in five stages of −(no significant lesion), ±(slight), +(mild), ++(moderate) and +++(marked), and allotting 0, 0.5, 1, 2 and 3 points, respectively, to obtain the average of each group.

[1] = Crj:CD(SD)IGS male rats, LPS 8 mg/kg on the trachea, 0.3 mg/kg/hr x 24 hr subcutaneous by osmotic pump, 24 hours after LPS, score 0-3, non-treated group 2.7, P < 0.01 vs. non-treated group
[2] = Crj:CD(SD)IGS male rats, LPS 8 mg/kg on the trachea, 0.3 mg/kg/hr x 24 hr subcutaneous by osmotic pump, 24 hours after LPS, score 0-3, non-treated group 2.8, P < 0.01 vs. non-treated group

SMILES: CCS(=O)(=O)Nc1ncc(C(F)(F)F)cc1NC(=O)C1CCCCC1.O.[Na] [Compound 1, N-(2-ethylsulfonylamino-5-trifluoromethyl-3-pyridyl)cyclohexanecarboxamide sodium salt hydrate]
- Histopathological findings of alveoli: Collapse of alveolar wall (average of score in each group), Mean [1]: 1.2
- Histopathological findings of alveoli: Hemorrhage in alveoli (average of score in each group), Mean [1]: 1.5
- Histopathological findings of alveoli: Alveolar edema (average of score in each group), Mean [2]: 1.4
- Histopathological findings of alveoli: Fibrin deposit in alveoli (average of score in each group), Mean [2]: 1.5
- Autopsy findings of lung: Edema (average of score in each group), Mean (Crj:CD(SD)IGS male rats, LPS 8 mg/kg on the trachea, 0.3 mg/kg/hr x 24 hr subcutaneous by osmotic pump, autopsy 24 hours after LPS, score 0, 0.5, 1, 2, 3 for -, ±, +, ++, +++, non-treated group 0.4): 0.1
- Autopsy findings of lung: Hemorrhage (average of score in each group), Mean (Crj:CD(SD)IGS male rats, LPS 8 mg/kg on the trachea, 0.3 mg/kg/hr x 24 hr subcutaneous by osmotic pump, autopsy 24 hours after LPS, score 0-3, non-treated group 1.0): 0.5
- Autopsy findings of lung: Congestion (average of score in each group), Mean (Crj:CD(SD)IGS male rats, LPS 8 mg/kg on the trachea, 0.3 mg/kg/hr x 24 hr subcutaneous by osmotic pump, autopsy 24 hours after LPS, score 0-3, non-treated group 2.8, P < 0.01 vs. non-treated group): 2.2
- Collapse of the alveolar wall, alveolar edema and hemorrhage, and fibrin deposit in the alveoli (LPS induced rat ARDS model, compound 1 administered group (0.3 mg/kg/hr subcutaneous, 24 hours) compared with non-treated group, result in words): reduced
- Inhibition effect against ARDS pathological progress (LPS induced rat ARDS model, compound 1 administered group (0.3 mg/kg/hr subcutaneous, 24 hours), result in words): remarkable inhibition effect
